Consider 3 compounds from patent publication US5053338A, “Kinetic resolution of pyridazinones using lipase” (Glaxo Inc., priority 1990, dated 1991).

In assay [1] the test system is anesthetized dogs (left ventricular dP/dt). Kind of assay: Anesthetized Dog: inotropic effect (increase in baseline dP/dt). Type of assay: in vivo. The note with it: infusion of atenolol. The method, then:
Inotropic effects were evaluated in barbiturate-anesthetized dogs by differentiating left intraventricular pressure. This procedure was carried out essentially as described by M. K. Grizzel et al in the FASEB Journal, Vol. 3, page 1039, abstract 4728 (1989). […] Cardiac output was determined via thermodilution with a Spectramed computer (Starcom, Oxnard, Calif.) and a 5F Swan Ganz catheter which was inserted into the right jugular vein and positioned in the pulmonary artery. […] A lead II electrocardiogram was measured using subcutaneous electrodes. […] Rectal temperature was monitored and maintained at 37°-38° C. with a heating pad (Baxter Health Care model K20, McGaw Park, Ill.). All variables were recorded using a Gould 3800S physiograph.
Isoproterenol ([…]) was injected i.v. into the cephalic vein at 10 min intervals except for when the test drug infusion was begun. […] Inhibition of the isoproterenol responses on contractibility (dP/dt), heart rate and diastolic blood pressure were determined at each dose of test compound. The inotropic effect of each compound was determined by comparing the level of dP/dt at the end of each 10 min period to that of the level of dP/dt just prior to the infusion of test compound. […]

The test system of assay [2] is rat aorta. The assay can be described thus: Rat Aorta Protocol (relaxation of phenylephrine-contracted rat aorta rings). Type of assay: cell-based. The note with it: phenylephrine 1×10^-7 M, methylene blue and propranolol present, endothelium removed, read-out: IC50 (concentration producing a relaxation equivalent to 50% of the maximal relaxation induced by nitroprusside). The method, then: Such vasorelaxation appears to be related to inhibition of the phosphodiesterase (PDE) isozyme related to the cardiac sarcoplasmic reticulum. Thus, relaxation of rat aorta can be used as a screen to eliminate compounds which are not PDE inhibitors prior to testing for actual inotropic activity.
Rings of rat aorta (endothelium removed) were prepared for the measurement of isometric force in isolated tissue organ chambers essentially as previously described by T. J. Rimele et al in the Journal of Pharmacol. Exp. Ther. 245:102-111 (1988). The experimental portion of the protocol began with the addition of methylene blue (1×10^-5 M) and propranolol (1×10^-6 M) to each organ chamber to inhibit basal cGMP accumulation due to soluble guanylate cyclase and beta-adrenoceptors.Phenylephrine (1×10^-7 M) was then added and the rings were allowed to obtain a stable contractile response after which time, the test compound was added in a cumulative fashion. The relaxation induced by each concentration of the test compound was expressed as a percentage of the maximal relaxation produced by nitroprusside (1×10^-4 M) The results were graphically represented as a plot of the percentage relaxation vs. the negative log of the molar concentration of the test compound. […]

In assay [3] the test system is rat aorta. Conditions: R. F. Kauffman et al., J. Pharmacol. Exp. Ther. 242:864-872 (1987); cited from earlier work.

For `O=C(COc1ccc(C2=NNC(=O)CC2)cc1Cl)NCCNC[C@H](O)COc1ccccc1` [Example 19, 6-{4-[N-[2-[3-phenoxy-2-hydroxypropylamino]ethyl]carbamoylmethoxy]-3-chlorophenyl}-4,5-dihydro-3(2H)-pyridazinone], the “effect of atenolol on the inotropic effects” value in assay [1] is given as “not blocked by atenolol”. Moreover, the IC50 in the assay on rat aorta [2] was 340 nM.
Take `CSc1ccc(C(=O)c2[nH]c(=O)[nH]c2C)cc1` [enoximone]: in the assay with rat aorta [3], the “relaxation of rat aorta” value is given as “marked relaxation”.
`Cc1[nH]c(=O)c(C#N)cc1-c1ccncc1` [milrinone]: in the assay with rat aorta [3], the “relaxation of rat aorta” value is “marked relaxation”.
